# Measured values from patent publication US12492173B2, “Herbicidal substituted N-tetrazolyl aryl carboxamides” (Bayer Aktiengesellschaft, priority 2019, dated 2025).
# Columns and labels:
# Format in all cases: in vivo
# Echinochloa crus-galli = assay: Pre-emergence herbicidal action, ECHCG; conditions: dosage 320 g/ha; for herbicidal activity ECHCG: scored visually after 3 weeks vs untreated controls (100% = plants have died)
# Summary of the method: (§1)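 Weed seeds sown in sandy loam and covered; WP or EC formulations applied to soil surface as aqueous suspension or emulsion at 600 to 800 l/ha with 0.2% wetting agent. Greenhouse-grown, with damage scored visually after 3 weeks versus untreated controls (0% = like control, 100% = plants dead).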
# Viola tricolor = assay: Pre-emergence herbicidal action, VIOTR; conditions: dosage 320 g/ha; for herbicidal activity VIOTR: scored visually after 3 weeks vs untreated controls (100% = plants have died)
# Summary of the method: as §1
# Alopecurus myosuroides = assay: Post-emergence herbicidal action, ALOMY; parameters: key: % herbicidal action vs untreated; 100 = plants died, 0 = like control
# Summary of the method: (§2)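 Treatment: post-emergence spray, one-leaf stage. Medium: sandy loam, greenhouse. Carrier: 600–800 l/ha water, 0.2% wetting agent. Read-out: visual % activity at ~3 weeks, untreated plants as reference.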
# Polygonum convolvulus = assay: Post-emergence herbicidal action, POLCO
# Summary of the method: as §2
# Avena fatua = assay: Post-emergence herbicidal action, AVEFA; parameters: key: % herbicidal action vs untreated; 100 = plants died, 0 = like control
# Summary of the method: as §2
# Veronica persica = assay: Post-emergence herbicidal action, VERPE; parameters: key: % herbicidal action vs untreated; 100 = plants died, 0 = like control
# Summary of the method: as §2
# [1] = comparative experiment, post-emergence, 5 g of a.i./ha
Compound,herbicidal activity ECHCG (Echinochloa crus-galli),herbicidal activity VIOTR (Viola tricolor),herbicidal action POLCO (Polygonum convolvulus; Dosage 80 g/ha),herbicidal action AVEFA (Avena fatua; Dosage 80 g/ha),herbicidal action VERPE (Veronica persica; Dosage 80 g/ha),also measured
Cn1nnnc1NC(=O)c1ccc(C(F)(F)F)c(C[S+](C)[O-])c1Cl (racemic) [Example 1-297],100%,100%,–,–,–,"herbicidal action ALOMY (Alopecurus myosuroides; post-emergence, dosage 80 g/ha): 100%; herbicidal action POLCO (Polygonum convolvulus; post-emergence, dosage 80 g/ha): 80%; herbicidal action AVEFA (Avena fatua; post-emergence, dosage 80 g/ha): 100%; herbicidal action VERPE (Veronica persica; post-emergence, dosage 80 g/ha): 100%"
Cc1c(C(=O)Nc2nnnn2C)ccc(C(F)(F)F)c1C[S+](C)[O-] (centres unmarked) [Example 1-84],100%,100%,–,–,–,"herbicidal action ALOMY (Alopecurus myosuroides; post-emergence, dosage 80 g/ha): 80%; herbicidal action AVEFA (Avena fatua; post-emergence, dosage 80 g/ha): 90%; herbicidal action VERPE (Veronica persica; post-emergence, dosage 80 g/ha): 100%"
Cc1c(C(=O)Nc2nnnn2C)ccc(C(F)(F)F)c1CS(C)(=O)=O [Example 1-85],100%,100%,80,80,100,–
CCSCc1c(C(F)(F)F)ccc(C(=O)Nc2nnnn2C)c1C [Example 1-86],100%,100%,–,–,–,"herbicidal action ALOMY (Alopecurus myosuroides; post-emergence, dosage 80 g/ha): 80%; herbicidal action POLCO (Polygonum convolvulus; post-emergence, dosage 80 g/ha): 80%; herbicidal action AVEFA (Avena fatua; post-emergence, dosage 80 g/ha): 100%; herbicidal action VERPE (Veronica persica; post-emergence, dosage 80 g/ha): 90%"
"CSCc1c(C(F)F)ccc(C(=O)Nc2nnnn2C)c1C [Example 1-107, 4-(difluoromethyl)-2-methyl-3-[(methylsulfanyl)methyl]-N-(1-methyl-1H-tetrazol-5-yl)benzamide]",100%,90%,90,80,100,–
Cc1c(C(=O)Nc2nnnn2C)ccc(C(F)F)c1CS(C)(=O)=O [Example 1-109],90%,100%,–,–,100,–
COc1c(C(=O)Nc2nnnn2C)ccc(C(F)(F)F)c1CSC [Example 1-134],100%,100%,90,90,100,"Herbicidal action against POLCO (Polygonum convolvulus; post-emergence, dosage 80 g/ha): 80; Herbicidal action against VERPE (Veronica persica; [1]): 100; Herbicidal action against VERPE (Veronica persica; post-emergence, dosage 80 g/ha): 100"
CSCc1c(C(F)(F)F)ccc(C(=O)Nc2nnnn2C)c1SC [Example 1-161],100%,100%,–,100,100,herbicidal action ALOMY (Alopecurus myosuroides; Dosage 80 g/ha): 90
CCSCc1c(C(F)F)ccc(C(=O)Nc2nnnn2C)c1SCC [Example 1-191],100%,100%,90,80,100,herbicidal action ALOMY (Alopecurus myosuroides; Dosage 80 g/ha): 80
CSCc1c(C(F)(F)F)ccc(C(=O)Nc2nnnn2C)c1F [Example 1-242],100%,100%,–,80,100,–
Cn1nnnc1NC(=O)c1ccc(C(F)(F)F)c(C[S+](C)[O-])c1F (centres unmarked) [Example 1-243],100%,100%,–,80,100,–
Cn1nnnc1NC(=O)c1ccc(C(F)(F)F)c(CS(C)(=O)=O)c1F [Example 1-244],100%,100%,–,–,100,–
Cc1ccc(C(=O)Nc2nnnn2C)c(Cl)c1CS(C)(=O)=O [Example 1-289],90%,90%,–,–,100,herbicidal action ALOMY (Alopecurus myosuroides; Dosage 80 g/ha): 80
CSCc1c(C(F)(F)F)ccc(C(=O)Nc2nnnn2C)c1Cl [Example 1-296],100%,100%,–,–,–,"herbicidal action ALOMY (Alopecurus myosuroides; post-emergence, dosage 80 g/ha): 100%; herbicidal action AVEFA (Avena fatua; post-emergence, dosage 80 g/ha): 90%; herbicidal action VERPE (Veronica persica; post-emergence, dosage 80 g/ha): 100%"
Cn1nnnc1NC(=O)c1ccc(C(F)(F)F)c(CS(C)(=O)=O)c1Cl [Example 1-298],100%,100%,–,–,–,"Herbicidal action against ALOMY (Alopecurus myosuroides; [1]): 70; herbicidal action ALOMY (Alopecurus myosuroides; post-emergence, dosage 80 g/ha): 100%; Herbicidal action against POLCO (Polygonum convolvulus; [1]): 60; herbicidal action POLCO (Polygonum convolvulus; post-emergence, dosage 80 g/ha): 90%; Herbicidal action against AVEFA (Avena fatua; [1]): 60; herbicidal action AVEFA (Avena fatua; post-emergence, dosage 80 g/ha): 100%; Herbicidal action against VERPE (Veronica persica; [1]): 90; herbicidal action VERPE (Veronica persica; post-emergence, dosage 80 g/ha): 100%"
CCS(=O)(=O)Cc1c(C(F)(F)F)ccc(C(=O)Nc2nnnn2C)c1Cl [Example 1-301],100%,100%,100,100,100,herbicidal action ALOMY (Alopecurus myosuroides; Dosage 80 g/ha): 80

Compound,herbicidal activity ECHCG (Echinochloa crus-galli),herbicidal activity VIOTR (Viola tricolor),herbicidal action POLCO (Polygonum convolvulus; Dosage 80 g/ha),herbicidal action AVEFA (Avena fatua; Dosage 80 g/ha),herbicidal action VERPE (Veronica persica; Dosage 80 g/ha),also measured
C=CCSCc1c(C(F)(F)F)ccc(C(=O)Nc2nnnn2C)c1Cl [Example 1-308],100%,100%,–,–,–,"herbicidal action ALOMY (Alopecurus myosuroides; post-emergence, dosage 80 g/ha): 100%; herbicidal action POLCO (Polygonum convolvulus; post-emergence, dosage 80 g/ha): 90%; herbicidal action AVEFA (Avena fatua; post-emergence, dosage 80 g/ha): 100%; herbicidal action VERPE (Veronica persica; post-emergence, dosage 80 g/ha): 80%"
CSCc1c(C(F)(F)F)ccc(C(=O)Nc2nnnn2C)c1Br [Example 1-380],100%,100%,–,–,–,"herbicidal action ALOMY (Alopecurus myosuroides; post-emergence, dosage 80 g/ha): 90%; herbicidal action POLCO (Polygonum convolvulus; post-emergence, dosage 80 g/ha): 90%; herbicidal action AVEFA (Avena fatua; post-emergence, dosage 80 g/ha): 100%; herbicidal action VERPE (Veronica persica; post-emergence, dosage 80 g/ha): 100%"
"Cn1nnnc1NC(=O)c1ccc(C(F)(F)F)c(CS(C)(=O)=O)c1Br [Example 1-382, 2-bromo-3-[(methylsulfonyl)methyl]-N-(1-methyl-1H-tetrazol-5-yl)-4-(trifluoromethyl)benzamide]",100%,100%,90,100,100,–
Cn1nnnc1NC(=O)c1ccc(Cl)c(CS(C)(=O)=O)c1Cl [Example 1-561],100%,100%,–,90,100,–
CCn1nnnc1NC(=O)c1ccc(S(C)(=O)=O)c(CS(C)(=O)=O)c1C [Example 2-39],–,–,–,–,100,herbicidal action ECHCG (Echinochloa crus-galli): 90%; herbicidal action VIOTR (Viola tricolor): 100%
CCn1nnnc1NC(=O)c1ccc(C(F)(F)F)c(C[S+](C)[O-])c1OC (centres unmarked) [Example 2-135],100%,100%,90,100,100,–
CCn1nnnc1NC(=O)c1ccc(C(F)(F)F)c(CS(C)(=O)=O)c1OC [Example 2-136],100%,100%,–,100,100,–
CCn1nnnc1NC(=O)c1ccc(C)c(CSC)c1Cl [Example 2-287],100%,90%,80,–,80,herbicidal action ALOMY (Alopecurus myosuroides; Dosage 80 g/ha): 100
CCn1nnnc1NC(=O)c1ccc(C(F)(F)F)c(CS(C)(=O)=O)c1Br [Example 2-382],100%,100%,80,–,100,herbicidal action ALOMY (Alopecurus myosuroides; Dosage 80 g/ha): 80
CCCn1nnnc1NC(=O)c1ccc(C(F)(F)F)c(CS(=O)(=O)CC)c1C [Example 3-88],100%,100%,90,80,90,–
CCCn1nnnc1NC(=O)c1ccc(C(F)F)c(CSC)c1C [Example 3-107],100%,100%,90,80,100,–
CCCn1nnnc1NC(=O)c1ccc(C(F)(F)F)c(CSC)c1OC [Example 3-134],100%,100%,90,90,100,–
CCCn1nnnc1NC(=O)c1ccc(C(F)(F)F)c(CS(C)(=O)=O)c1OC [Example 3-136],100%,100%,80,–,100,herbicidal action ALOMY (Alopecurus myosuroides; Dosage 80 g/ha): 90
CCCn1nnnc1NC(=O)c1ccc(C(F)(F)F)c(CSC)c1Cl [Example 3-296],100%,100%,–,90,100,herbicidal action ALOMY (Alopecurus myosuroides; Dosage 80 g/ha): 80
CCCn1nnnc1NC(=O)c1ccc(C(F)F)c(C[S+]([O-])CC)c1Cl (centres unmarked) [Example 3-324],100%,100%,100,100,–,–
CCCn1nnnc1NC(=O)c1ccc(C(F)(F)F)c(CS(=O)(=O)CC)c1Br [Example 3-385],100%,100%,90,–,100,–
